The supplement of paper PMC10307832

Experiments:
Experiment in all cases: relative viability (nuclei count vs DMSO), 5 days (fraction); higher = more cells survive
Wnt-C59 + Phenformin = compound: CC1=NC=CC(=C1)C2=CC=C(C=C2)CC(=O)NC3=CC=C(C=C3)C4=CN=CC=C4 [Wnt-C59] + N=C(N)NC(=N)NCCc1ccccc1 [Phenformin] (partner 250 µM)
Method in brief: (§1)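 Five library-drug doses in √10 steps were combined with a fixed anchor-drug dose, or a single drug was given alone, by pin tool to lung cancer cell lines in 1536-well plates the day after seeding. Nuclei were stained and counted after 5 days. Relative viability is the nuclei count in treated wells over that in vehicle wells, taken as the median of duplicate plates.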

Wnt-C59 + Tozasertib = compound: CC1=NC=CC(=C1)C2=CC=C(C=C2)CC(=O)NC3=CC=C(C=C3)C4=CN=CC=C4 [Wnt-C59] + Cc1cc(Nc2cc(N3CCN(C)CC3)nc(Sc3ccc(NC(=O)C4CC4)cc3)n2)n[nH]1 [Tozasertib] (partner 0.1 µM)
Method in brief: as §1

Wnt-C59 + Navitoclax = compound: CC1=NC=CC(=C1)C2=CC=C(C=C2)CC(=O)NC3=CC=C(C=C3)C4=CN=CC=C4 [Wnt-C59] + CC1(C)CCC(c2ccc(Cl)cc2)=C(CN2CCN(c3ccc(C(=O)NS(=O)(=O)c4ccc(N[C@H](CCN5CCOCC5)CSc5ccccc5)c(S(=O)(=O)C(F)(F)F)c4)cc3)CC2)C1 [Navitoclax] (partner 0.5 µM)
Method in brief: as §1

Lapatinib + Bortezomib = compound: CS(=O)(=O)CCNCc1ccc(-c2ccc3ncnc(Nc4ccc(OCc5cccc(F)c5)c(Cl)c4)c3c2)o1 [Lapatinib] + CC(C)C[C@H](NC(=O)[C@H](Cc1ccccc1)NC(=O)c1cnccn1)B(O)O [Bortezomib] (partner 0.002 µM)
Method in brief: as §1

Cell Line | relative viability (Wnt-C59 + Phenformin; first compound 0.001 µM) | relative viability (Wnt-C59 + Phenformin; first compound 0.01 µM) | relative viability (Wnt-C59 + Phenformin; first compound 0.03162 µM) | relative viability (Wnt-C59 + Phenformin; first compound 0.1 µM) | relative viability (Wnt-C59 + Tozasertib; first compound 0.001 µM) | relative viability (Wnt-C59 + Tozasertib; first compound 0.01 µM) | relative viability (Wnt-C59 + Tozasertib; first compound 0.03162 µM) | relative viability (Wnt-C59 + Tozasertib; first compound 0.1 µM) | relative viability (Wnt-C59 + Navitoclax; first compound 0.001 µM) | relative viability (Wnt-C59 + Navitoclax; first compound 0.01 µM) | relative viability (Wnt-C59 + Navitoclax; first compound 0.03162 µM) | relative viability (Wnt-C59 + Navitoclax; first compound 0.1 µM) | relative viability (Lapatinib + Bortezomib; first compound 0.02 µM) | relative viability (Lapatinib + Bortezomib; first compound 0.06325 µM) | relative viability (Lapatinib + Bortezomib; first compound 0.2 µM) | relative viability (Lapatinib + Bortezomib; first compound 0.6325 µM) | relative viability (Lapatinib + Bortezomib; first compound 2 µM)
HCC-827 | 0.431 | 0.413 | 0.452 | 0.391 | 0.45 | 0.427 | 0.374 | 0.443 | 1.08 | 1.04 | 1.04 | 1.02 | 0.982 | 1.04 | 1.1 | 0.94 | 1.07
HOP-62 | 0.771 | 0.603 | 0.662 | 0.607 | 0.349 | 0.363 | 0.394 | 0.314 | 1.05 | 1.04 | 0.98 | 0.903 | – | 0.857 | 0.577 | 0.99 | 0.761
IA-LM | – | – | – | – | – | – | – | – | 0.851 | 0.751 | 0.718 | 0.751 | 0.787 | 0.788 | 0.893 | 0.88 | 0.839
LC-2-ad | 0.68 | 0.546 | 0.659 | 0.545 | 0.403 | 0.45 | 0.478 | 0.434 | 0.478 | 0.349 | 0.614 | 0.406 | – | 0.936 | 0.994 | 1.14 | 0.96
LCLC-97TM1 | 0.397 | 0.425 | 0.475 | 0.429 | 0.252 | 0.205 | 0.226 | 0.182 | 0.429 | 0.445 | 0.505 | 0.264 | – | – | 0.515 | 0.74 | 0.819
LCLC-103H | 0.352 | 0.334 | 0.366 | 0.329 | 0.516 | 0.487 | 0.475 | 0.474 | – | – | – | – | – | 1.03 | 1.13 | 1.06 | 1.04
LK-2 | 0.479 | 0.379 | 0.481 | 0.321 | 0.165 | 0.173 | 0.189 | 0.18 | 0.884 | 0.972 | 1.02 | 0.868 | – | – | – | – | –
LOU-NH91 | 0.793 | 0.641 | 0.601 | 0.672 | 0.775 | 0.597 | 0.695 | 0.682 | 0.823 | 0.573 | 0.638 | 0.713 | – | 0.469 | 0.522 | 0.499 | 0.544
LU99A | 0.904 | 0.845 | 0.879 | 0.876 | 0.256 | 0.276 | 0.272 | 0.262 | 0.779 | 0.933 | 0.822 | 0.772 | 1.05 | 0.932 | 1.15 | 1.15 | 0.94
LXF-289 | 0.552 | 0.535 | 0.552 | 0.503 | 0.22 | 0.221 | 0.182 | 0.194 | 0.999 | 0.912 | 0.929 | 0.948 | 0.972 | 0.931 | 0.981 | 1 | 0.929
NCI-H358 | 0.343 | 0.257 | 0.431 | 0.337 | 0.108 | 0.0976 | 0.108 | 0.0887 | – | – | – | – | – | – | – | – | –
NCI-H522 | 0.614 | 0.599 | 0.601 | 0.64 | 0.63 | 0.566 | 0.578 | 0.651 | – | – | – | – | – | – | – | – | –
NCI-H650 | 0.441 | 0.457 | 0.483 | 0.5 | 0.734 | 0.748 | 0.802 | 0.729 | – | – | – | – | – | 0.662 | 0.653 | 0.86 | 0.841
NCI-H661 | 0.292 | 0.311 | 0.27 | 0.288 | 0.351 | 0.324 | 0.352 | 0.357 | – | – | – | – | 0.703 | 0.756 | 0.674 | 0.618 | 0.482
NCI-H1299 | – | – | – | – | – | – | – | – | 1.03 | 1.06 | 1.02 | 1.02 | 1.05 | 1.04 | 1.02 | 1.01 | 0.996
NCI-H1395 | 0.442 | 0.423 | 0.495 | 0.429 | 0.71 | 0.668 | 0.755 | 0.844 | 1.24 | 1.1 | 1.08 | 1.32 | – | – | – | – | –
NCI-H1563 | 0.688 | 0.673 | 0.693 | 0.666 | – | – | – | – | – | – | – | – | 0.952 | 0.741 | 0.826 | 0.902 | 0.834
NCI-H1623 | 0.582 | 0.562 | 0.607 | 0.572 | 0.426 | 0.401 | 0.415 | 0.434 | – | – | – | – | – | – | – | – | –
NCI-H1648 | – | – | – | – | 0.581 | 0.611 | 0.364 | 0.524 | – | – | – | – | – | – | – | – | –
NCI-H1703 | – | – | – | – | – | – | – | – | 1.45 | 1.39 | 1.08 | 1.08 | 0.316 | 0.313 | 0.317 | 0.24 | 0.32
NCI-H1792 | 0.363 | 0.301 | – | 0.22 | – | – | – | – | 0.671 | 0.669 | 0.695 | 0.701 | 0.892 | 0.718 | 0.922 | 0.923 | 1.02
NCI-H1793 | 0.34 | – | 0.397 | 0.362 | 0.309 | – | 0.302 | 0.345 | 0.397 | 0.398 | 0.378 | 0.95 | – | – | – | – | –
NCI-H1944 | 0.197 | 0.188 | 0.19 | 0.197 | 0.237 | 0.261 | 0.263 | 0.246 | 1.06 | 0.96 | 1.07 | 0.964 | – | – | – | – | –
NCI-H2170 | 0.436 | 0.395 | 0.405 | 0.443 | 0.721 | 0.641 | 0.852 | 0.602 | 0.608 | 0.35 | 0.595 | 0.527 | – | – | – | – | –
NCI-H2342 | 0.616 | 0.63 | 0.756 | 0.746 | 0.643 | 0.416 | 0.53 | 0.624 | – | – | – | – | – | – | – | – | –
SK-MES-1 | 0.673 | 0.69 | 0.694 | 0.695 | 0.94 | 0.913 | 0.944 | 0.824 | 1.2 | 1.17 | 1.3 | 1.16 | – | – | – | – | –
SW 900 | 0.633 | 0.607 | 0.555 | 0.574 | 0.538 | 0.502 | 0.557 | 0.589 | – | – | – | – | – | – | – | – | –
